PMC8067314, “Uptake of Vitamins D2, D3, D4, D5, D6, and D7 Solubilized in Mixed Micelles by Human Intestinal Cells, Caco-2, an Enhancing Effect of Lysophosphatidylcholine on the Cellular Uptake, and Estimation of Vitamins D’ Biological Activities” (Nutrients, 2021)

Tests used:
[1] = system: dispersed Caco-2 cells; experiment: Uptake of vitamin D from mixed micelles by dispersed Caco-2 cells; type: in vitro ADME, human; settings: dispersed Caco-2 cells, 2 h
From the text: (§1) Since 2001, we have reported that lysophospholipids enhance the uptake of micellar carotenoids in Caco-2 cells. […] In the present study, using the same method, we examined whether the mechanism for the enhancing effect of lysophosphatidylcholine could be adapted to vitamin D, as well. To evaluate the impact of the degree of cell-cell adhesion/cell-matrix adhesion on vitamin D uptake by cells, we prepared in two different ways: i) dispersed Caco-2 cells without cell-cell adhesion/cell-matrix adhesion and ii) Caco-2 cells with insufficient cell-cell adhesion.
(i): The dispersed cells were prepared by trypsin treatment. After collecting the cells in the culture medium, the number of cells was counted and diluted with the medium. The cells were washed two times with FBS-free DMEM and then seeded in culture plate of 24-well for suspension cultures (SC plate; Greiner Bio-One, Frickenhausen, Germany) at a density of 15 × 10^4 cells per well containing the FBS-free DMEM (0.5 mL).
(§2) Subsequent operations are common to the two models of cells. The medium consisting of mixed micellar vitamin D (0.5 mL) was added to adhered cells or dispersed cells in individual wells containing FBS-free DMEM (0.5 mL), resulting in a total medium volume of 1.0 mL/well, and the final start concentrations of mixed micellar components were one-half the initial concentration. The cells were incubated in the same conditions as described above, i.e., in a CO2 incubator at 37 °C for 2 h, and then the cells were washed with 2 mM taurocholate/PBS, followed by two times with PBS. The vitamin D uptake and residual mixed micellar vitamin D were evaluated as the previous subsection, but the filtrate of residual mixed micellar vitamin D was diluted with a 2x-volume of H2O. The cellular protein content was also determined as above.

[2] = system: rats; settings: cited from earlier work
[3] = system: rats; settings: line test, vitamins D provided as a crystal; cited from earlier work
[4] = system: Caco-2 cells with insufficient cell-cell adhesion; experiment: Uptake of vitamin D2 by adherent Caco-2 cells with insufficient cell-cell adhesion; type: in vitro ADME, human; settings: 2-h incubation
From the text: as §1
(ii): The cells that had insufficient cell-cell adhesion were prepared by reducing the culture period from 20–22 d for full differentiation to <7 d after the seeding described above.
as §2

[5] = system: chicks; settings: cited from earlier work
[6] = system: rats; parameters: method as in PMID 9017001; settings: cited from earlier work

Row | Compound | Vitamin-D2 uptake from lysoPC mixed micelles relative to that from NoPC mixed micelles [1] | Intestinal absorption compared with vitamin D3 [2] | Anti-rickets activity, comparison of vitamins D [3] | Vitamin D2 uptake, NoPC vs lysoPC mixed micelles ([4]; Caco-2 cells cultured for 3 d) | Vitamin D2 uptake, NoPC vs lysoPC mixed micelles ([4]; Caco-2 cells cultured for 5 d) | Vitamin D2 uptake, NoPC vs lysoPC mixed micelles ([4]; Caco-2 cells cultured for 7 d) | Intestinal absorption compared with vitamin D3 or D4 [5] | Activity for increasing the blood concentration of calcium relative to 1,25-di(OH)-vitamin D3 [6]
1 | C=C1CC[C@H](O)C/C1=C/C=C1\CCC[C@]2(C)[C@@H]([C@H](C)/C=C/[C@H](C)C(C)C)CC[C@@H]12 [Vitamin D2] | approximately one-sixth | slightly more easily absorbed than vitamin D3 | highest activities and were similar | significantly higher by cells cultured for 3 d from NoPC mixed micelles | no difference in the uptake amounts between NoPC mixed micelles and lysoPC mixed micelles | uptake from lysoPC mixed micelles were significantly higher than those from NoPC mixed micelles | less absorbed than vitamin D3 | –
2 | C=C1/C(=C\C=C2/CCC[C@]3(C)[C@@H]([C@H](C)CC[C@@H](CC)C(C)C)CC[C@@H]23)C[C@@H](O)C[C@@H]1O [1-OH-vitamin D5] | – | – | – | – | – | – | – | approximately one-sixth
